How the values were obtained:
[1] = Excretion study, recovery of total radioactivity after single oral [3H]-CYA; type: in vivo, Wistar rats
Experimental: For the excretion study, a group of six rats (3 male and 3 female) were housed individually in metabolism cages, which allowed separate collection of urine and feces, and then administered with a single dose of 10 mg/kg bw (corresponded to a feed inclusion of approximately 100 mg/kg dose) [^3H]-CYA by oral gavage. Dosing suspensions of [^3H]-CYA were prepared in 0.5% aqueous CMC at 2 mg/mL after [^3H]-CYA (2.08 Ci/mmol) was diluted with non-radiolabeled CYA to a specific activity of 4.52 × 10^4 dpm/µg. Urine and feces were collected from intact animals for 7 days at 0–12, 12–24, 24–48, 48–72, 72–96, 96–120, 120–144, and 144–168 h after the dose, and the total weight of the urine and feces was recorded after each collection. At the end of the study, the animals are anesthetized, and once it's confirmed that they have lost consciousness, they are euthanized by exsanguination. The samples were stored at −20°C until analysis. Contents of gastrointestinal tracts were pooled with feces of 144–168 h time point. Each metabolism cage was thoroughly rinsed with a mixture of methanol/water (1:1; V/V), and the rinse solvent was collected and weighed. Each cage rinse was stirred thoroughly, […] of subsamples were removed, and radioactivities were analyzed immediately. One animal per gender was administered with non-radiolabeled CYA at the same dose, and animals were sacrificed at 6 h post-dose. Urine, feces, and tissues were collected for the blank controls.
(§1) For radioactivity detection, the samples were combusted by PerkinElmer Oxidizer 307 (PerkinElmer Life and Analytical Sciences). ^3H2O was collected into 20 mL of scintillant (PerkinElmer Life and Analytical Sciences) with 10 mL of Monophase S, and sample radioassays were quantitated by PerkinElmer® TriCarb® 2900 (PerkinElmer Life and Analytical Sciences) with low-level quench-correction. Counting efficiency was above 65%.
(§2) Tissue samples for each sampling time from all animals were homogenized, aliquots of blood and urine were mixed thoroughly, and feces were homogenized in methanol/water (50:50; V/V). Samples of the blood (500 μL), urine (500 μL) feces (500 mg), bone, and all tissues (100–500 mg) were combusted in PerkinElmer Oxidizer 307 after being transferred into tared cones and pads (PerkinElmer Life and Analytical Sciences) and added an aliquot of Combustaid (200 μL; PerkinElmer Life and Analytical Sciences). Radioactivity in the combustion products was determined by collecting ^3H2O into distilled water followed by liquid scintillation counting. Combustion efficiency was determined daily, prior to the combustion of study samples, by using a diluted dose formulation or ^3H standard. The measured radioactivity content in the combusted samples was adjusted using the combustion efficiency values. Samples were analyzed for radioactivity for 5 min. Total residue concentrations were calculated from the specific activity and radioactivity per mass or volume and expressed as molar equivalents of CYA.

[2] = Tissue distribution and depletion after oral [3H]-CYA for seven consecutive days; type: in vivo, Wistar rats; settings: rats; for Tissue distribution and depletion of CYA (means ± SD) / t1/2 (elimination half-life): oral 10 mg/kg·bw x 7 days; for Tissue distribution and depletion of CYA (means ± SD): n = 4
Experimental: For the tissue distribution study, 24 rats were divided into six groups, one group as a blank control and five groups as five time point groups. Each time point group consisted of 4 rats (2 male and 2 female) administered [^3H]-CYA orally by gavage at 10 mg/kg bw (corresponded to a feed inclusion of approximately 100 mg/kg dose) for seven consecutive days, respectively. Dosing suspensions of [^3H]-CYA (2.08 Ci/mmol) were prepared in 0.5% aqueous carboxymethyl cellulose (CMC) at 4 mg/mL after being diluted with non-radiolabeled CYA to a specific activity of 9,044 dpm/µg. Another group of 4 rats (2 male and 2 female) was fed separately from the radioactive administration group for the blank control under the same conditions, sacrificed at 0 day. One group of 2 male and 2 female rats was randomly selected to be slaughtered at each time point (0.25, 1, 3, 7, and 14 days) after withdrawal. The rats were dissected, and blood, muscle, heart, liver, lung, spleen, kidney, skin, stomach, large intestine, small intestine, brain, cecum, testicle (or ovary), bladder, and bone (thigh bone) were collected separately and stored at −20°C until analysis. The weight of each tissue was recorded. Gastrointestinal tracts were stripped of their contents.
as §1, §2

[3] = rats, single oral 10 mg/kg bw, 7 days

For [3H]c1ccc2c(c1)[n+]([O-])cc(/C=N/NC(=O)CC#N)[n+]2[O-] [[^3H]-CYA], the “radioactivity excreted, % of total dose” value ([1]; 0–12 h post-dose) was 21.03%, the “radioactivity excreted, % of total dose” value ([1]; 12–24 h post-dose) was 70.25% and the “drug-related radioactivity excreted, % of administration amount” value ([1]; first 24 h after administration) was 91.28%. The “radioactivity excreted in the feces” value [1, 3] was 60.25%, the “radioactivity excreted in the urine” value [1, 3] was 34.81% and the “radioactivity of the cage rinse” value [1, 3] was 0.78%. The “radioactivity remaining in the carcass” value [1, 3] was 0.38%, the “Overall recovery of total radioactivity” value ([1]; rats, single oral 10 mg/kg bw, within 7 days (168 h), n = 6) was 96.22% and the “Tissue distribution and depletion of CYA (means ± SD)” value ([2]; Bladder, 6 h after withdrawal) was 0.98863 ± 0.19738 mg/kg. The “Tissue distribution and depletion of CYA (means ± SD)” value ([2]; Blood, 6 h after withdrawal) was 1.55298 ± 0.13322 mg/kg, the “Tissue distribution and depletion of CYA (means ± SD)” value ([2]; Blood, 1 d after withdrawal) was 0.78575 ± 0.05613 mg/kg and the “Tissue distribution and depletion of CYA (means ± SD)” value ([2]; Blood, 3 d after withdrawal) was 0.74887 ± 0.0257 mg/kg. The “Tissue distribution and depletion of CYA (means ± SD)” value ([2]; Blood, 7 d after withdrawal) was 0.06989 ± 0.03612 mg/kg, the “t1/2 (elimination half-life)” value ([2]; Blood) was 38.50 h and the “Tissue distribution and depletion of CYA (means ± SD)” value ([2]; Bone, 6 h after withdrawal) was 0.49469 ± 0.05879 mg/kg. The “Tissue distribution and depletion of CYA (means ± SD)” value ([2]; Bone, 1 d after withdrawal) was 0.28043 ± 0.05615 mg/kg, the “Tissue distribution and depletion of CYA (means ± SD)” value ([2]; Brain, 6 h after withdrawal) was 0.62702 ± 0.06033 mg/kg and the “Tissue distribution and depletion of CYA (means ± SD)” value ([2]; Brain, 1 d after withdrawal) was 0.45064 ± 0.04138 mg/kg. For the same compound, the “Tissue distribution and depletion of CYA (means ± SD)” value ([2]; Caecum, 6 h after withdrawal) was 15.5409 ± 2.03867 mg/kg, the “Tissue distribution and depletion of CYA (means ± SD)” value ([2]; Caecum, 1 d after withdrawal) was 0.56384 ± 0.06558 mg/kg and the “Tissue distribution and depletion of CYA (means ± SD)” value ([2]; Caecum, 3 d after withdrawal) was 0.02075 ± 0.01112 mg/kg. The “t1/2 (elimination half-life)” value ([2]; Caecum) was 7.45 h, the “Tissue distribution and depletion of CYA (means ± SD)” value ([2]; Heart, 6 h after withdrawal) was 1.091 ± 0.1971 mg/kg and the “Tissue distribution and depletion of CYA (means ± SD)” value ([2]; Heart, 1 d after withdrawal) was 0.66217 ± 0.10149 mg/kg. The “Tissue distribution and depletion of CYA (means ± SD)” value ([2]; Heart, 3 d after withdrawal) was 0.24376 ± 0.04678 mg/kg, the “t1/2 (elimination half-life)” value ([2]; Heart) was 31.50 h and the “Tissue distribution and depletion of CYA (means ± SD)” value ([2]; Kidney, 6 h after withdrawal) was 6.24527 ± 0.67361 mg/kg. For the same compound, the “Tissue distribution and depletion of CYA (means ± SD)” value ([2]; Kidney, 1 d after withdrawal) was 2.03447 ± 0.34637 mg/kg, the “Tissue distribution and depletion of CYA (means ± SD)” value ([2]; Kidney, 3 d after withdrawal) was 1.14528 ± 0.11569 mg/kg and the “Tissue distribution and depletion of CYA (means ± SD)” value ([2]; Kidney, 7 d after withdrawal) was 0.08605 ± 0.04177 mg/kg. For the same compound, the “t1/2 (elimination half-life)” value ([2]; Kidney) was 28.88 h, the “Tissue distribution and depletion of CYA (means ± SD)” value ([2]; Large Intestine, 6 h after withdrawal) was 2.32296 ± 0.11341 mg/kg and the “Tissue distribution and depletion of CYA (means ± SD)” value ([2]; Large Intestine, 1 d after withdrawal) was 0.5581 ± 0.05702 mg/kg. For the same compound, the “Tissue distribution and depletion of CYA (means ± SD)” value ([2]; Large Intestine, 3 d after withdrawal) was 0.12977 ± 0.0238 mg/kg, the “t1/2 (elimination half-life)” value ([2]; Large Intestine) was 16.90 h and the “Tissue distribution and depletion of CYA (means ± SD)” value ([2]; Liver, 6 h after withdrawal) was 5.04944 ± 0.37061 mg/kg. For the same compound, the “Tissue distribution and depletion of CYA (means ± SD)” value ([2]; Liver, 1 d after withdrawal) was 2.35504 ± 0.25805 mg/kg, the “Tissue distribution and depletion of CYA (means ± SD)” value ([2]; Liver, 3 d after withdrawal) was 1.4301 ± 0.17539 mg/kg and the “Tissue distribution and depletion of CYA (means ± SD)” value ([2]; Liver, 7 d after withdrawal) was 0.12635 ± 0.04235 mg/kg. For the same compound, the “t1/2 (elimination half-life)” value ([2]; Liver) was 33.00 h, the “Tissue distribution and depletion of CYA (means ± SD)” value ([2]; Lung, 6 h after withdrawal) was 1.88405 ± 0.29415 mg/kg and the “Tissue distribution and depletion of CYA (means ± SD)” value ([2]; Lung, 1 d after withdrawal) was 1.68108 ± 0.11214 mg/kg. The “Tissue distribution and depletion of CYA (means ± SD)” value ([2]; Lung, 3 d after withdrawal) was 0.79745 ± 0.09581 mg/kg, the “Tissue distribution and depletion of CYA (means ± SD)” value ([2]; Lung, 7 d after withdrawal) was 0.04918 ± 0.01852 mg/kg and the “t1/2 (elimination half-life)” value ([2]; Lung) was 30.13 h. The “Tissue distribution and depletion of CYA (means ± SD)” value ([2]; Muscle, 6 h after withdrawal) was 0.96902 ± 0.06106 mg/kg, the “Tissue distribution and depletion of CYA (means ± SD)” value ([2]; Muscle, 1 d after withdrawal) was 0.52982 ± 0.05487 mg/kg and the “Tissue distribution and depletion of CYA (means ± SD)” value ([2]; Ovary, 6 h after withdrawal) was 2.88421 ± 0.06688 mg/kg. The “Tissue distribution and depletion of CYA (means ± SD)” value ([2]; Ovary, 1 d after withdrawal) was 0.32655 ± 0.03923 mg/kg, the “Tissue distribution and depletion of CYA (means ± SD)” value ([2]; Ovary, 3 d after withdrawal) was 0.01887 ± 0.00619 mg/kg and the “t1/2 (elimination half-life)” value ([2]; Ovary) was 9.63 h. The “Tissue distribution and depletion of CYA (means ± SD)” value ([2]; Skin/Fat, 6 h after withdrawal) was 1.2996 ± 0.23417 mg/kg, the “Tissue distribution and depletion of CYA (means ± SD)” value ([2]; Skin/Fat, 1 d after withdrawal) was 1.03596 ± 0.07642 mg/kg and the “Tissue distribution and depletion of CYA (means ± SD)” value ([2]; Skin/Fat, 3 d after withdrawal) was 0.42024 ± 0.03644 mg/kg. For the same compound, the “Tissue distribution and depletion of CYA (means ± SD)” value ([2]; Skin/Fat, 7 d after withdrawal) was 0.0253 ± 0.02233 mg/kg, the “Tissue distribution and depletion of CYA (means ± SD)” value ([2]; Small Intestine, 6 h after withdrawal) was 2.86777 ± 0.1072 mg/kg and the “Tissue distribution and depletion of CYA (means ± SD)” value ([2]; Small Intestine, 1 d after withdrawal) was 0.46368 ± 0.12091 mg/kg. For the same compound, the “Tissue distribution and depletion of CYA (means ± SD)” value ([2]; Small Intestine, 3 d after withdrawal) was 0.05785 ± 0.01762 mg/kg, the “t1/2 (elimination half-life)” value ([2]; Small Intestine) was 12.60 h and the “Tissue distribution and depletion of CYA (means ± SD)” value ([2]; Spleen, 6 h after withdrawal) was 1.1278 ± 0.08725 mg/kg. The “Tissue distribution and depletion of CYA (means ± SD)” value ([2]; Spleen, 1 d after withdrawal) was 0.75931 ± 0.04725 mg/kg, the “Tissue distribution and depletion of CYA (means ± SD)” value ([2]; Spleen, 3 d after withdrawal) was 0.2717 ± 0.05323 mg/kg and the “Tissue distribution and depletion of CYA (means ± SD)” value ([2]; Spleen, 7 d after withdrawal) was 0.02521 ± 0.04114 mg/kg. For the same compound, the “t1/2 (elimination half-life)” value ([2]; Spleen) was 30.13 h, the “Tissue distribution and depletion of CYA (means ± SD)” value ([2]; Stomach, 6 h after withdrawal) was 2.29013 ± 0.61619 mg/kg and the “Tissue distribution and depletion of CYA (means ± SD)” value ([2]; Stomach, 1 d after withdrawal) was 0.44866 ± 0.04356 mg/kg. For the same compound, the “Tissue distribution and depletion of CYA (means ± SD)” value ([2]; Stomach, 3 d after withdrawal) was 0.14233 ± 0.00993 mg/kg, the “t1/2 (elimination half-life)” value ([2]; Stomach) was 18.24 h and the “Tissue distribution and depletion of CYA (means ± SD)” value ([2]; Testicle, 6 h after withdrawal) was 1.05196 ± 0.00706 mg/kg. For the same compound, the “Tissue distribution and depletion of CYA (means ± SD)” value ([2]; Testicle, 1 d after withdrawal) was 0.74037 ± 0.07782 mg/kg, the “Tissue distribution and depletion of CYA (means ± SD)” value ([2]; Testicle, 3 d after withdrawal) was 0.3319 ± 0.05429 mg/kg and the “t1/2 (elimination half-life)” value ([2]; Testicle) was 40.76 h. The “time of maximum concentrations in all detected organs or tissues” value ([2]; oral 10 mg/kg bw for seven consecutive days) was 6 h.
